Measurements: ChEMBL document CHEMBL1149491, “Novel tricyclic azepine derivatives: Biological evaluation of pyrimido[4,5-b]-1,4-benzoxazepines, thiazepines, and diazepines as inhibitors of the epidermal growth factor receptor tyrosine kinase” (Bioorg Med Chem Lett, 2006)

Assays:
[1] = biological target: Vascular endothelial growth factor receptor 2 (Homo sapiens, UniProt P35968)
Description: Inhibition of KDR measured as pGAT-biotin peptide phosphorylation by HTRF assay

[2] = biological target: T1, Epidermal growth factor receptor (Homo sapiens, UniProt P00533); experiment: Inhibition of EGFR autophosphorylation in DiFi cells by ELISA; format: functional, cell-based
T1 sequence (P00533 whole entry): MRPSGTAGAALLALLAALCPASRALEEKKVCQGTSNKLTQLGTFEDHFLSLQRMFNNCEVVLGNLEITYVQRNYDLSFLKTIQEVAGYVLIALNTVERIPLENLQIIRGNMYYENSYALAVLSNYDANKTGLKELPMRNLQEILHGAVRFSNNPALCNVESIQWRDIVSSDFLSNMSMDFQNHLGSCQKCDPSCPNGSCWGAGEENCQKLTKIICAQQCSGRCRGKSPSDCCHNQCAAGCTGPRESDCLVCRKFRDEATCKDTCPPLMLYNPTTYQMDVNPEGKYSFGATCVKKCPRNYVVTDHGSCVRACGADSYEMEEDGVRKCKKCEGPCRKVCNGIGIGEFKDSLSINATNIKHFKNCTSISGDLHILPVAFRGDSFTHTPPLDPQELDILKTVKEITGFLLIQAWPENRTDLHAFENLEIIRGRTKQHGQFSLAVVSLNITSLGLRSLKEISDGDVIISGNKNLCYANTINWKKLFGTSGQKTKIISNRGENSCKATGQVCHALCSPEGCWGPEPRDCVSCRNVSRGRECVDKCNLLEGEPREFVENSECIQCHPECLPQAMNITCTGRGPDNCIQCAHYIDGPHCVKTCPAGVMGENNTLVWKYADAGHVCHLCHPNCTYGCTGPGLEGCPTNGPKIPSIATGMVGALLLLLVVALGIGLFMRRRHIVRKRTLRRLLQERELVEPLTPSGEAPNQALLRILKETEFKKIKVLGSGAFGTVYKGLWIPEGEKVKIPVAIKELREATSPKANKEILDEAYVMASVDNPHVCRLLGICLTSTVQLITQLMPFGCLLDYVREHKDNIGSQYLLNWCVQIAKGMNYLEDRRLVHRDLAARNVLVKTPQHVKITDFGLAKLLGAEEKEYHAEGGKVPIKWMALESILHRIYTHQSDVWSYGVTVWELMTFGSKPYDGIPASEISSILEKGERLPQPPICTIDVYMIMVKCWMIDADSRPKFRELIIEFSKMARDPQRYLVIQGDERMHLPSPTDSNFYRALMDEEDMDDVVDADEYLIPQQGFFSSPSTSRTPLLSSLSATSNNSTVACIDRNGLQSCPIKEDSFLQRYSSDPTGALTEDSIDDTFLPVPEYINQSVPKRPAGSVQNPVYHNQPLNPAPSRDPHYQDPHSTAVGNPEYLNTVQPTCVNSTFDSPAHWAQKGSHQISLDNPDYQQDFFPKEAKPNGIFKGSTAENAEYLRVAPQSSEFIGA

[3] = biological target: T1, Epidermal growth factor receptor; experiment: Inhibition of EGFR measured as pGAT-biotin peptide phosphorylation in presence of 2.0 uM ATP by HTRF assay; format: functional

Vascular endothelial growth factor receptor 2, sequence (P35968 whole entry): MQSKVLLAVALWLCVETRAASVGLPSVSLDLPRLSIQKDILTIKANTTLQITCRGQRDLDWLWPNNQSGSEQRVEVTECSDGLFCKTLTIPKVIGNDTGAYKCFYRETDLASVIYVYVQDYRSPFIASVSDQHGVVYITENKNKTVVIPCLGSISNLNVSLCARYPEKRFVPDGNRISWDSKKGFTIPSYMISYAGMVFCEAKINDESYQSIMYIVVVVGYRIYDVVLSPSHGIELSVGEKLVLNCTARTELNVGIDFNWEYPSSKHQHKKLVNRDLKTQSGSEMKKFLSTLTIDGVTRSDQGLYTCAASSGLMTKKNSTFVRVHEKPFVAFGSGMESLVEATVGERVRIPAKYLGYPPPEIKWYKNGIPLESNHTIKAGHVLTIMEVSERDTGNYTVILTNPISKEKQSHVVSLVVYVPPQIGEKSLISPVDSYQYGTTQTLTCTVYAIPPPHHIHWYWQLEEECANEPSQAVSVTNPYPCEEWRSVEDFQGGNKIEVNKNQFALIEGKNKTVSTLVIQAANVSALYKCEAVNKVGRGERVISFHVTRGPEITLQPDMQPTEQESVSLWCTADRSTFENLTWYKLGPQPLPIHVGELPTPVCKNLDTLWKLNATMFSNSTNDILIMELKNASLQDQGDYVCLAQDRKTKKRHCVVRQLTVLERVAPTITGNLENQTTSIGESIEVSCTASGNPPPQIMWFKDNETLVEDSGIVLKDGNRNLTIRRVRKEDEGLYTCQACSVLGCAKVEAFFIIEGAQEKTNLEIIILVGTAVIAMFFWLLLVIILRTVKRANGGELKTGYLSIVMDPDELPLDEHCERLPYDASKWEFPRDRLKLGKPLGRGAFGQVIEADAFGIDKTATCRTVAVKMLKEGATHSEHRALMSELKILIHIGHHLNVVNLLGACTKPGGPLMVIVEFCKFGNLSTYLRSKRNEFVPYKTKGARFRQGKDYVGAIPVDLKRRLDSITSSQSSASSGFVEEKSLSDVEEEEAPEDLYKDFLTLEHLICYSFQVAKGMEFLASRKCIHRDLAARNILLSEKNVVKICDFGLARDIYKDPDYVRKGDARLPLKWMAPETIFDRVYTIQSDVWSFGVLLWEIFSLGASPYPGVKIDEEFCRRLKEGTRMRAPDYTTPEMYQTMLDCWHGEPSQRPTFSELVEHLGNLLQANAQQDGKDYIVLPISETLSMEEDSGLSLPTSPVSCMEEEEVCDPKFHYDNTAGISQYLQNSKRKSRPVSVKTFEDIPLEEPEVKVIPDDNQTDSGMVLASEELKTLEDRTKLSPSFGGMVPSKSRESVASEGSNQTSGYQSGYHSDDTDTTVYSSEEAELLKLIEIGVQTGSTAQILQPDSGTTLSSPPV

Row | Structure (SMILES) | IC50 [1] [µM] | IC50 [2] [nM] | IC50 [3] [µM]
1 | COc1cc2c(cc1OC)Oc1ncnc(Sc3cccc(Cl)c3)c1NC2 | > 10 | 2400 | 1
2 | COc1cc2c(cc1OC)Oc1ncnc(Sc3cccc(Br)c3)c1NC2 | > 10 | 1200 | 1.3
3 | COc1cc2c(cc1OC)Oc1ncnc(Nc3cccc(C)c3)c1NC2 | > 10 | 4400 | 7.4
4 | COc1cc2c(cc1OC)Oc1ncnc(Nc3ccc4ncsc4c3)c1NC2 | > 10 | – | 5.6
5 | COc1cc2c(cc1OC)Sc1nc(C)nc(Nc3ccc4ncsc4c3)c1NC2 | – | – | 15.2
6 | COc1cc2c(cc1OC)Sc1nc(C)nc(Nc3ccc4c(c3)CN=N4)c1NC2 | – | – | 16.2
7 | COc1cc2c(cc1OC)Sc1nc(C)nc(Nc3ccc4[nH]cnc4c3)c1NC2 | – | – | 14.5
8 | COc1cc2c(cc1OC)Sc1ncnc(Oc3cccc(Cl)c3F)c1NC2 | – | – | 19.3
9 | COc1cc2c(cc1OC)Nc1ncnc(Nc3cccc(Br)c3)c1NC2 | – | – | 1.5
10 | COc1cc2c(cc1OC)Oc1ncnc(Nc3cccc(Br)c3)c1NC2 | > 10 | 500 | 0.3
11 | COc1cc2c(cc1OC)Oc1ncnc(Nc3ccc4c[nH]nc4c3)c1NC2 | > 10 | – | 1.2
12 | COc1cc2c(cc1OC)Nc1ncnc(N[C@H](C)c3ccccc3)c1NC2 | 2 | 500 | 0.15
13 | COc1cc2c(cc1OC)Sc1ncnc(N(C)c3cccc(Cl)c3)c1NC2 | – | – | 27
14 | COc1cc2c(cc1OC)Oc1ncnc(Nc3cccc(Cl)c3F)c1NC2 | – | 4600 | 0.3
15 | COc1cc2c(cc1OC)Oc1ncnc(Oc3ccc(F)c(Cl)c3)c1N(C)C2 | > 10 | – | 10.8
16 | COc1cc2c(cc1OC)Sc1ncnc(Nc3ccc(F)c(Cl)c3)c1NC2 | – | – | 8.2
17 | COc1cc2c(cc1OC)Oc1ncnc(Oc3cccc(Br)c3)c1N(C)C2 | – | 6100 | 1.2
18 | COc1cc2c(cc1OC)Sc1nc(C)nc(Nc3ccc(Cl)c(C)c3)c1NC2 | – | – | > 100
19 | COc1cc2c(cc1OC)Sc1nc(C)nc(Nc3ccc(F)c(Cl)c3)c1NC2 | – | – | 45.9
20 | COc1cc2c(cc1OC)Sc1ncnc(Nc3ccc4c[nH]nc4c3)c1NC2 | – | – | 14.1
21 | COc1cccc(CNc2ncnc3c2NCc2cc(OC)c(OC)cc2N3)c1 | 2 | 11700 | 0.8
22 | COc1cc2c(cc1OC)Sc1nc(C)nc(Nc3ccc(C)c(Br)c3)c1NC2 | – | – | > 100

Row | Structure (SMILES) | IC50 [1] [µM] | IC50 [2] [nM] | IC50 [3] [µM]
23 | COc1cc2c(cc1OC)Sc1nc(C)nc(Nc3ccc4c[nH]nc4c3)c1NC2 | – | – | 24.6
24 | COc1cc2c(cc1OC)Sc1nc(C)nc(Nc3cccc(Br)c3)c1NC2 | – | – | 30.7
25 | COc1cc2c(cc1OC)Oc1nc(C)nc(Nc3cccc(Cl)c3F)c1NC2 | > 10 | – | > 100
26 | COc1cc2c(cc1OC)Oc1ncnc(Nc3ccc(F)cc3)c1NC2 | > 10 | 7600 | 7.1
27 | C#Cc1cccc(Nc2ncnc3c2NCc2cc(OC)c(OC)cc2O3)c1 | – | 900 | 3.2
28 | COc1cc2c(cc1OC)Sc1ncnc(Nc3cccc(Cl)c3F)c1NC2 | – | – | 62.9
29 | COc1cc2c(cc1OC)Sc1ncnc(Sc3cccc(Cl)c3)c1NC2 | – | – | 2.9
30 | COc1cc2c(cc1OC)Sc1nc(C)nc(Nc3ccc4ccccc4c3)c1NC2 | – | – | 17
31 | COc1cc2c(cc1OC)Sc1ncnc(Sc3cccc(Br)c3)c1NC2 | – | – | 1.6
32 | COc1cc2c(cc1OC)Oc1ncnc(Oc3cccc(Br)c3)c1NC2 | > 10 | 1800 | 0.7
33 | COc1cc2c(cc1OC)Oc1ncnc(Oc3cccc(Cl)c3F)c1NC2 | – | – | 4.6
34 | COc1cc2c(cc1OC)Nc1ncnc(NCc3ccc(F)c(Cl)c3)c1NC2 | 2 | 1600 | 0.3
35 | COc1cc2c(cc1OC)Sc1ncnc(N(C)c3cccc(Br)c3)c1NC2 | – | – | > 100
36 | COc1cc2c(cc1OC)Oc1ncnc(Nc3ccc(F)c(Cl)c3)c1NC2 | – | 700 | –
37 | COc1cc2c(cc1OC)Oc1ncnc(Nc3cc(Cl)ccc3F)c1NC2 | – | 3900 | 1.1
38 | COc1cc2c(cc1OC)Sc1nc(C)nc(Nc3cccc(Cl)c3F)c1NC2 | – | – | > 100
39 | COc1cc2c(cc1OC)Oc1ncnc(Nc3ccc(Br)cc3)c1NC2 | > 10 | > 100000 | 8.7
40 | COc1cc2c(cc1OC)Nc1ncnc(NCc3ccccc3)c1NC2 | 2 | 900 | 0.2
41 | COc1cc2c(cc1OC)Sc1ncnc(Nc3cccc(Br)c3)c1NC2 | – | – | 5.9
42 | COc1cc2c(cc1OC)Sc1ncnc(Oc3cccc(Br)c3)c1NC2 | – | – | 21.7
43 | COc1cc2c(cc1OC)Oc1ncnc(Nc3ccc4ccccc4c3)c1NC2 | > 10 | 2300 | 0.5
44 | COc1cc2c(cc1OC)Sc1ncnc(Nc3ccc4ncsc4c3)c1NC2 | – | – | > 100
